Laboratory results taken from patent publication US20060281700A1, “SYNERGISTIC MODULATION OF FLT3 KINASE USING AMINOPYRIMIDINES KINASE MODULATORS” (priority 2005, published 2006).

What was measured:
MV4-11 cells = assay: Inhibition of MV4-11 cell proliferation (CellTiterGlo, 72 hours); assay type: cell-based; conditions: Homo sapiens; 72 hours growth; uncertainty ±20%
Description: Inhibition Of MV4-11 and Baf3 Cell Proliferation
To assess the cellular potency of the FLT3 inhibitors of Formula I′, FLT3 specific growth inhibition was measured in the leukemic cell line MV4-11 (ATCC Number: CRL-9591). […] MV4-11 cells cannot grow and survive without active FLT3ITD.
To measure proliferation inhibition by test compounds, the luciferase based CellTiterGlo reagent (Promega), which quantifies total cell number based on total cellular ATP concentration, was used. Cells are plated at 10,000 cells per well in 100 ul of in RPMI media containing penn/strep, 10% FBS and 1 ng/ml GM-CSF or 1 ng/ml IL-3 for MV4-11 and Baf3 cells respectively.
Compound dilutions or 0.1% DMSO (vehicle control) are added to cells and the cells are allowed to grow for 72 hours at standard cell growth conditions (37° C., 5% CO2). For activity measurements in MV4-11 cells grown in 50% plasma, cells were plated at 10,000 cells per well in a 1:1 mixture of growth media and human plasma (final volume of 100 μL). To measure total cell growth an equal volume of CellTiterGlo reagent was added to each well, according to the manufacturer's instructions, and luminescence was quantified. Total cell growth was quantified as the difference in luminescent counts (relative light units, RLU) of cell number at Day 0 compared to total cell number at Day 3 (72 hours of growth and/or compound treatment). One hundred percent inhibition of growth is defined as an RLU equivalent to the Day 0 reading. Zero percent inhibition was defined as the RLU signal for the DMSO vehicle control at Day 3 of growth. All data points are an average of triplicate samples. […] Inhibition and IC50 data analysis was done with GraphPad Prism using a non-linear regression fit with a multiparamater, sigmoidal dose-response (variable slope) equation.
MV4-11 cells express the FLT3 internal tandem duplication mutation, and thus are entirely dependent upon FLT3 activity for growth. […] In contrast, the Baf3 cell proliferation is driven by the cytokine IL-3 and thus are used as a non-specific toxicity control for test compounds.

[1] = biological target: T1, isolated kinase domain of the human FLT3 receptor (a.a. 571-993) (Homo sapiens, UniProt P36888); assay: FLT3 Fluorescence Polarization Kinase Assay; assay type: biochemical; conditions: 10 nM FLT3 571-993, 150 uM ATP; uncertainty ±10%
T1 construct: isolated kinase domain of the human FLT3 receptor (a.a. 571-993)
T1 sequence (P36888 571-993): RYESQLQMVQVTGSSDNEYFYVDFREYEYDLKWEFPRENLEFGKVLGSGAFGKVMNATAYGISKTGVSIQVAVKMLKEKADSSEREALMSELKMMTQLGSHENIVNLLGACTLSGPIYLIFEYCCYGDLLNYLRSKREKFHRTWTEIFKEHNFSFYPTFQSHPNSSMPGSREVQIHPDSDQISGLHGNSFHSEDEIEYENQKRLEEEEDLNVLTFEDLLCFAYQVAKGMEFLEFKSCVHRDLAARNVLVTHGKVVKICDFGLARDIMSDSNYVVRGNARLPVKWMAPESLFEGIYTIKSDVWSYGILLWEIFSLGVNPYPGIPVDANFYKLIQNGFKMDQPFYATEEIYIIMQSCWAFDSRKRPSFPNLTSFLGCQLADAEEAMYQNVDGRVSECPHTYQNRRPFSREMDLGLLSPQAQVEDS
Description: FLT3 Fluorescence Polarization Kinase Assay
To determine the activity of the FLT3 inhibitors of Formula I′ in an in vitro kinase assay, inhibition of the isolated kinase domain of the human FLT3 receptor (a.a. 571-993) was performed using the following fluorescence polarization (FP) protocol. The FLT3 FP assay utilizes the fluorescein-labeled phosphopeptide and the anti-phosphotyrosine antibody included in the Panvera Phospho-Tyrosine Kinase Kit (Green) supplied by Invitrogen. When FLT3 phosphorylates polyGlu4Tyr, the fluorescein-labeled phosphopeptide is displaced from the anti-phosphotyrosine antibody by the phosphorylated poly Glu4Tyr, thus decreasing the FP value. The FLT3 kinase reaction is incubated at room temperature for 30 minutes under the following conditions: 10 nM FLT3 571-993, 20 ug/mL poly Glu4Tyr, 150 uM ATP, 5 mM MgCl2, 1% compound in DMSO. The kinase reaction is stopped with the addition of EDTA. The fluorescein-labeled phosphopeptide and the anti-phosphotyrosine antibody are added and incubated for 30 minutes at room temperature.
All data points are an average of triplicate samples. Inhibition and IC50 data analysis was done with GraphPad Prism using a non-linear regression fit with a multiparamater, sigmoidal dose-response (variable slope) equation.

Row | IC50 (MV4-11 cells) | IC50 [1] | Compound
1 | 672 nM | 78 nM | CO/N=C/c1c(N)ncnc1N1CCC(NC(=O)Nc2ccc(C3CCCCC3)cc2)CC1 [Number 22, 1-{1-[6-Amino-5-(methoxyimino-methyl)-pyrimidin-4-yl]-piperidin-4-yl}-3-(4-cyclohexyl-phenyl)-urea]
2 | 764 nM | 450 nM | CO/N=C/c1c(N)ncnc1N1CCC(NC(=O)Nc2ccc(N3CCCCC3)cc2)C1 (stereo not shown) [Number 9, 1-{1-[6-Amino-5-(methoxyimino-methyl)-pyrimidin-4-yl]-pyrrolidin-3-yl}-3-(4-piperidin-1-yl-phenyl)-urea]
